The record followed here is PubChem BioAssay (NCI).

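The compound was tested at five concentrations on cells cultured in 96-well plates, with a 48-hour exposure period. TGI denotes the concentration required for complete inhibition of growth.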

Test systems include OVCAR-3 ovarian; NCI/ADR-RES ovarian; HCT-116 colon; KM12 colon; U251 CNS; HT29 colon; HL-60(TB) leukemia; UACC-62 melanoma; SF-268 CNS; UO-31 renal; EKVX NSCLC.
What all share (assay): NCI-60 cell line screen, 48 h

Take `CN(C)CC1CN(C(=O)Nc2ccccc2)C(=N)O1` (configuration not stated): the TGI in the assay on OVCAR-3 ovarian, with NCI/ADR-RES ovarian, with HCT-116 colon, in the assay with KM12 colon, in the assay with U251 CNS and with HT29 colon was > 100 µM in each case. Moreover, the TGI in the assay with HL-60(TB) leukemia, in the assay with UACC-62 melanoma, with SF-268 CNS, in the assay on UO-31 renal and with EKVX NSCLC was > 100 µM each time.

For `CCOC(=O)C1C(=O)CC(C)(O)C(C(=O)OCC)C1c1ccc(OC)cc1` (configuration not stated), the TGI in the assay with OVCAR-3 ovarian, in the assay with NCI/ADR-RES ovarian, in the assay on HCT-116 colon, with KM12 colon, with U251 CNS and in the assay on HT29 colon was > 100 µM in each case. Moreover, the TGI in the assay with HL-60(TB) leukemia, in the assay with UACC-62 melanoma, in the assay with SF-268 CNS, with UO-31 renal and in the assay with EKVX NSCLC was > 100 µM throughout.

`O=C1NCN(c2ccccc2)C12CCN(CCCSc1ccc(F)cc1)CC2`: the TGI with OVCAR-3 ovarian is > 100 µM; with NCI/ADR-RES ovarian, > 100 µM; in the assay on HCT-116 colon, 28.5 µM; in the assay on KM12 colon it was 65.4 µM; with U251 CNS, > 100 µM; in the assay on HT29 colon it was 19.4 µM. Also, the TGI is > 63.6 µM in the assay on HL-60(TB) leukemia; > 69 µM in the assay on UACC-62 melanoma; > 100 µM in the assay on SF-268 CNS; > 100 µM in the assay with UO-31 renal; > 100 µM in the assay with EKVX NSCLC.

Take `COc1cc2c(cc1OC)C(=O)/C(=C/c1ccccc1)C2`: the TGI in the assay on OVCAR-3 ovarian, with NCI/ADR-RES ovarian, in the assay with HCT-116 colon, in the assay with KM12 colon, in the assay on U251 CNS and in the assay with HT29 colon was > 100 µM each time. Also, the TGI in the assay with HL-60(TB) leukemia is 50 µM; in the assay with UACC-62 melanoma, > 67.7 µM; in the assay with SF-268 CNS it was > 100 µM; with UO-31 renal it was > 100 µM; in the assay on EKVX NSCLC, > 100 µM.

For `CO[C@H]1C[C@H](O[C@H]2CC[C@]3(C=O)[C@H]4CC[C@]5(C)[C@@H](C6=CC(=O)OC6)CC[C@]5(O)[C@@H]4CC[C@]3(O)C2)O[C@H](C)[C@H]1O[C@@H]1O[C@H](CO[C@@H]2O[C@H](CO)[C@@H](O)[C@H](O)[C@H]2O)[C@@H](O)[C@H](O)[C@H]1O`, the TGI in the assay with OVCAR-3 ovarian is 0.0809 µM; with NCI/ADR-RES ovarian it was 0.15 µM; in the assay on HCT-116 colon, 0.0911 µM; in the assay with KM12 colon it was 0.515 µM; in the assay with U251 CNS, 0.202 µM; in the assay on HT29 colon, 0.188 µM. Also, the TGI came out at 0.2 µM in the assay on HL-60(TB) leukemia; 0.467 µM in the assay with UACC-62 melanoma; 0.164 µM with SF-268 CNS; 0.144 µM in the assay with UO-31 renal; 0.0631 µM in the assay on EKVX NSCLC.

For the compound `COc1cc(C2c3cc4c(cc3OC(O)C2C)OCO4)cc(OC)c1O` (configuration not stated), the TGI was 27.4 µM in the assay on OVCAR-3 ovarian; 23.4 µM with NCI/ADR-RES ovarian; 38.3 µM in the assay with HCT-116 colon; > 100 µM in the assay with KM12 colon; 62.8 µM in the assay on U251 CNS; > 63.3 µM in the assay with HT29 colon. Moreover, the TGI in the assay on HL-60(TB) leukemia was 20.2 µM; in the assay on UACC-62 melanoma, 52.4 µM; in the assay with SF-268 CNS, > 100 µM; in the assay with UO-31 renal it was > 96.5 µM; in the assay with EKVX NSCLC it was > 81.9 µM.

Regarding `CC[C@]12C=CCN3CCC4(c5cc(N=Nc6ccc([N+](=O)[O-])cc6)c(OC)cc5N(C)[C@H]4[C@@](O)(C(=O)OC)[C@@H]1OC(C)=O)[C@@H]32` (some centres not stated), the TGI worked out at 16.8 µM with OVCAR-3 ovarian; 42.2 µM in the assay on NCI/ADR-RES ovarian; 24.6 µM in the assay with HCT-116 colon; 33.2 µM in the assay with KM12 colon; 27.4 µM in the assay on U251 CNS; 23.9 µM with HT29 colon. Moreover, the TGI with HL-60(TB) leukemia was 28.1 µM; in the assay on UACC-62 melanoma, > 100 µM; with SF-268 CNS, > 100 µM; in the assay on UO-31 renal it was 25.9 µM; in the assay with EKVX NSCLC, 56.9 µM.

Regarding `Clc1ccc(CSCc2ccc(Cl)cc2Cl)c(Cl)c1`, the TGI with OVCAR-3 ovarian, in the assay with NCI/ADR-RES ovarian, with HCT-116 colon, with KM12 colon, in the assay on U251 CNS and in the assay on HT29 colon was > 100 µM in each case. In addition, the TGI with HL-60(TB) leukemia, in the assay on UACC-62 melanoma, in the assay on SF-268 CNS, in the assay with UO-31 renal and in the assay on EKVX NSCLC was > 100 µM each time.

Take `CC[C@@H]1C[C@@H](O)[C@@H]2[C@H](O)[C@H](O)CN2C1`: the TGI with OVCAR-3 ovarian, with NCI/ADR-RES ovarian, with HCT-116 colon, in the assay on KM12 colon, in the assay on U251 CNS and with HT29 colon was > 100 µM in each case. Moreover, the TGI with HL-60(TB) leukemia, in the assay with UACC-62 melanoma, with SF-268 CNS, with UO-31 renal and in the assay with EKVX NSCLC was > 100 µM throughout.

As for `Cc1ccccc1Nc1cn(CCOc2ccccc2)c(=O)n(CCOc2ccccc2)c1=O`, the TGI in the assay with OVCAR-3 ovarian, with NCI/ADR-RES ovarian, in the assay with HCT-116 colon, with KM12 colon, in the assay with U251 CNS and in the assay with HT29 colon was > 100 µM each time. Moreover, the TGI in the assay with HL-60(TB) leukemia, in the assay with UACC-62 melanoma, in the assay on SF-268 CNS, in the assay with UO-31 renal and with EKVX NSCLC was > 100 µM in each case.

Turning to `Cc1c(C)c(C)c(CSC(=N)N)c(C)c1C`, the TGI was determined as 32.1 µM in the assay on OVCAR-3 ovarian; 30.6 µM in the assay on NCI/ADR-RES ovarian; 30 µM in the assay on HCT-116 colon; 39.3 µM in the assay with KM12 colon; 26.4 µM in the assay with U251 CNS; 25.6 µM in the assay on HT29 colon. In addition, the TGI in the assay with HL-60(TB) leukemia stood at 27.6 µM; with UACC-62 melanoma, 24.2 µM; in the assay with SF-268 CNS, 36.2 µM; in the assay with UO-31 renal it was 20.2 µM; in the assay with EKVX NSCLC, 28 µM.

For the compound `C(=N/Nc1ccccn1)/c1cccnc1`, the TGI in the assay on OVCAR-3 ovarian, in the assay on NCI/ADR-RES ovarian, in the assay on HCT-116 colon, in the assay on KM12 colon, with U251 CNS and in the assay on HT29 colon was > 100 µM each time. In addition, the TGI with HL-60(TB) leukemia, in the assay with UACC-62 melanoma, with SF-268 CNS, with UO-31 renal and in the assay with EKVX NSCLC was > 100 µM in each case.
